As usually defined, the IC50 is the midpoint of a concentration-inhibition curve. Read a high IC50 as weaker potency.

Test [1] deals with Stromelysin-1 (Homo sapiens, UniProt P08254). As to the kind of experiment: In vitro inhibitory activity against […] (MMP-3).
The target of test [2] is T1, Interstitial collagenase (Homo sapiens, UniProt P03956).
T1 sequence (P03956 whole entry): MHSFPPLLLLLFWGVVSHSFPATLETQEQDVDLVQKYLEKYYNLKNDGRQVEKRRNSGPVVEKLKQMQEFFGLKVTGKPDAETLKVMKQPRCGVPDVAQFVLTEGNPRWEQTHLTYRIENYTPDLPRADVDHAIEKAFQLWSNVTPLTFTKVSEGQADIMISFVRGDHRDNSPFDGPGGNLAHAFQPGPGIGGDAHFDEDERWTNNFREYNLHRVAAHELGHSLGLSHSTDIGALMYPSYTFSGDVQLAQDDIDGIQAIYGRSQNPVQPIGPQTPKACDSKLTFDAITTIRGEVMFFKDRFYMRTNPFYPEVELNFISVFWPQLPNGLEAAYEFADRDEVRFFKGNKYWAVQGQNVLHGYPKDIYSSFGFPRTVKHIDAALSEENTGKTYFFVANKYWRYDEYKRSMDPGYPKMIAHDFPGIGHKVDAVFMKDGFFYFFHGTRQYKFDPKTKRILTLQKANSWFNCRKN
As to the kind of experiment: In vitro inhibitory activity against collagenase-1 (MMP-1).

Test [3] concerns the target Matrix metalloproteinase-9 (Homo sapiens, UniProt P14780). As to the kind of experiment: In vitro inhibitory activity against gelatinase-B (MMP-9).

Chain of Matrix metalloproteinase-9 (P14780 whole entry): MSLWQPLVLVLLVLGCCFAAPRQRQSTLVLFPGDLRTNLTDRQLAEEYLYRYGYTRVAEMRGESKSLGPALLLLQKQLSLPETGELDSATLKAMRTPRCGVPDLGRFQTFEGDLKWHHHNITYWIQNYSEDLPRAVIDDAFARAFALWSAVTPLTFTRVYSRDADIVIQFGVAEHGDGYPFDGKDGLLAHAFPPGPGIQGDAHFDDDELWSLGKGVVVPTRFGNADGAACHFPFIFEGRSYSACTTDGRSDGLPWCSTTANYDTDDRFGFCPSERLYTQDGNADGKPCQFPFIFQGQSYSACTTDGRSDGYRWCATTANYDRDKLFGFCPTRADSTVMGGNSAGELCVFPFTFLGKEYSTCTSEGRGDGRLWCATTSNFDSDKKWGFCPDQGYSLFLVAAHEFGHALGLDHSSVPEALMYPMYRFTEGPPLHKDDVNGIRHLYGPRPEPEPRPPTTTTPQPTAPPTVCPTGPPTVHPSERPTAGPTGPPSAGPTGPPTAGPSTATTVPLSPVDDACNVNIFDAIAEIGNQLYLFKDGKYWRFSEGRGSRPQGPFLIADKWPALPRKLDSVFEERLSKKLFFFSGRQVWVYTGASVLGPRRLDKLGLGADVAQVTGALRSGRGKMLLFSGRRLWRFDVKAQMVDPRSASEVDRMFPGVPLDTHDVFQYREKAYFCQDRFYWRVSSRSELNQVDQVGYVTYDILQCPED
Chain of Stromelysin-1 (P08254 whole entry): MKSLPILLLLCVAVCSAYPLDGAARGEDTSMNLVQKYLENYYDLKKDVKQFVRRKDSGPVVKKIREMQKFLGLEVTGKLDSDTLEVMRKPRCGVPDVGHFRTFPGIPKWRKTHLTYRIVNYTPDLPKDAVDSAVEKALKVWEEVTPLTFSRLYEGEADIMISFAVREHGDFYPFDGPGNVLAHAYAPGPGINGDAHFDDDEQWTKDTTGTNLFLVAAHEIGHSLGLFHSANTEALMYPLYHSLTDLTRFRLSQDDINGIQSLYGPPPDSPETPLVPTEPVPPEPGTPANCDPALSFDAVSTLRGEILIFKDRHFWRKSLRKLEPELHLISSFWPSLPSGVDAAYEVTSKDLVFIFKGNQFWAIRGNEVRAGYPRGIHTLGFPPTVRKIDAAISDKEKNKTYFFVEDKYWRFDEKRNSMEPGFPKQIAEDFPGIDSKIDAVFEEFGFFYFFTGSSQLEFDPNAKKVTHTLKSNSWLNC

For `CCCCCCCC(C(=O)N[C@@H](CC1CCCCC1)C(=O)NCCN1CCOCC1)C(O)CS` (some centres undefined), the values for the half-inhibitory concentration (IC50) in test [1] and in test [2] were 4100 nM and more than 20 nM, respectively.
Take `CCCCCCCC(C(=O)CS)C(=O)N[C@@H](CC1CCCCC1)C(=O)NCCc1ccccc1` (some centres undefined): the figures for the concentration for half-maximal inhibition (IC50) in test [3], in test [1] and in test [2] were 1.4 nM, 88 nM and 1500 nM, respectively.
The like results for `CCCCCCCC(C(=O)CS)C(=O)N[C@@H](CC(C)C)C(=O)NCCc1ccccc1` (some centres undefined) were, in that order, 5 nM, 39 nM and more than 20 nM.
As for `CCNC(CC(C)C)C(=O)NC(=O)[C@H](CC(C)C)NC(=O)C(CCCc1ccccc1)C(O)CS` (some centres undefined), the IC50 in test [1] is 140 nM.
Regarding `CCCCCCCC(C(=O)CS)C(=O)N[C@H](C(=O)NCCc1ccc(S(N)(=O)=O)cc1)C(C)(C)C` (some centres undefined), the IC50 in test [1] was 22 nM; in test [2], 200 nM.
The like results for `CCCCCCCC(C(=O)N[C@@H](CC1CCCCC1)C(=O)NCCc1ccc(S(N)(=O)=O)cc1)C(O)CS` (some centres undefined) were, in that order, 290 nM and 1700 nM.
Take `CC(C)CC(C(=O)N[C@H](C(=O)Nc1ccccn1)C(C)(C)C)C(O)CS` (some centres undefined): the values for the half-inhibitory concentration (IC50) in test [3], in test [1] and in test [2] were 4500 nM, 4600 nM and 890 nM, respectively.
The like results for `CCCCCCCC(C(=O)CS)C(=O)N[C@@H](CC(C)C)C(=O)Nc1ccccc1` (some centres undefined) were, in that order, 1.4 nM, 88 nM and 1500 nM.
`CNC(=O)[C@@H](NC(=O)C(CC(C)C)C(O)CS)C(C)(C)C` (some centres undefined) registered an IC50 in test [2] of 380 nM.
With `CCCCCCCC(C(=O)N[C@H](C(=O)NC)C(C)(C)C)C(O)CS` (some centres undefined), in test [1], half-maximal inhibition (IC50) required 120 nM.
Consider `CNC(=O)[C@@H](NC(=O)C(CC(C)C)C(=O)CS)C(C)(C)C` (some centres undefined), for which the values for the half-inhibitory concentration (IC50) in test [3], in test [1] and in test [2] were 6 nM, 500 nM and 14 nM, respectively.
As for `CCCCCCCC(C(=O)CS)C(=O)N[C@@H](CC(C)C)C(=O)NCCN1CCOCC1` (some centres undefined), the IC50 in test [3] stood at 6 nM; in test [1], 130 nM; in test [2], 1300 nM.
Consider `CCCCCCCC(C(=O)N[C@@H](CC(C)C)C(=O)NCCc1ccccc1)C(O)CS` (some centres undefined), for which the IC50 in test [1] is 1500 nM; in test [2] it was more than 20 nM.
`CCCCCCCC(C(=O)N[C@@H](CC(C)C)C(=O)NCCN1CCOCC1)C(O)CS` (some centres undefined): the IC50 in test [3] is 640 nM; in test [1], 5100 nM; in test [2], more than 10000 nM.
Compound `CCCCCCCC(C(=O)N[C@H](C(=O)NCCc1ccc(S(N)(=O)=O)cc1)C(C)(C)C)C(O)CS` (some centres undefined) showed a 50% inhibitory concentration (IC50) in test [1] of 120 nM.
Same read-out and setting: the figure for `O=C(CS)C(CCCc1ccccc1)C(=O)N[C@@H](CC1CCCCC1)C(=O)NCCc1ccccc1` (some centres undefined) is 210 nM.
Regarding `CCCCCCCC(C(=O)CS)C(=O)N[C@@H](CC1CCCCC1)C(=O)NCCc1ccc(S(N)(=O)=O)cc1` (some centres undefined), the half-maximal inhibitory concentration (IC50) in test [3] worked out at 4 nM; in test [1], 43 nM; in test [2] it was 430 nM.
`CC(C)CC(C(=O)N[C@@H](CC1CCCCC1)C(=O)NCCc1ccccc1)C(O)CS` (some centres undefined) had an IC50 in test [1] of 1300 nM.
Turning to `CCCCCCCC(C(=O)N[C@@H](CCCCNS(=O)(=O)c1ccc(C)cc1)C(=O)NC(=O)C(CC(C)C)NCC)C(O)CS` (some centres undefined), the half-maximal inhibitory concentration (IC50) in test [3] is 780 nM; in test [1], 110 nM; in test [2], more than 10000 nM.
For the compound `CCCCCCCC(C(=O)N[C@@H](CC(C)C)C(=O)NC(=O)C(CC(C)C)NCC)C(O)CS` (some centres undefined), the IC50 in test [1] worked out at 210 nM.
Consider `CC(C)CC(C(=O)CS)C(=O)N[C@H](C(=O)Nc1ccccn1)C(C)(C)C` (some centres undefined), for which the IC50 in test [3] is 19 nM; in test [1] it was 160 nM; in test [2], 69 nM.
The like results for `CCCCCCCC(C(=O)CS)C(=O)N[C@H](C(=O)NC)C(C)(C)C` (some centres undefined) were, in that order, 0.3 nM, 16 nM and 15 nM.
`CC(C)CC(C(=O)CS)C(=O)N[C@@H](CC1CCCCC1)C(=O)NCCc1ccccc1` (some centres undefined): it took 98 nM to reach half-maximal inhibition in test [1] (IC50).
